{"source": "patent US8211646B1", "about": "“Methods of treating ovarian cancer by modulating SnoN” (University of South Florida, priority 2008, dated 2012)", "format_in_all_cases": "cell-based", "key": {"cleaved PARP": {"test_system": "cleaved PARP", "test": "Western analysis of PARP cleavage (early apoptosis marker)", "procedure": "(§1) Proteins were resolved on an 8%, 12%, or 15% SDS-PAGE gel (as appropriate) and electrophoretically transferred to polyvinyldifluoride (PVDF) membranes. After blocking with 5% (w/v) milk in TBST (Tris-Buffered Saline containing 0.1% Tween-20) for one hour at room temperature, membranes were incubated with primary antibodies (at appropriate dilution) overnight at 4° C., followed by extensive washing and incubation for 1 hour with the appropriate horseradish peroxidase-conjugated secondary antibodies (BioRad, Hercules, Calif.). Blots were washed extensively. A rabbit polyclonal EVI1 antibody was obtained (1:3000 dilution, St. Jude's Children's Hospital, Memphis, Tenn.). SnoN rabbit polyclonal (1:1000 dilution), PML, and p21 SMURF2 rabbit polyclonal (1:500 dilution), MRP1 mouse monoclonal (1:500 dilution) and GAPDH mouse monoclonal (1:250 dilution) antibodies were obtained from Santa Cruz Biotechnology (Santa Cruz, Calif.). TGFβRII rabbit polyclonal (1:1000 dilution) antibody was obtained from Strategic Diagnostics (Newark, Del.). Smad2/3 rabbit polyclonal (1:1000 dilution), Beclin-1 rabbit polyclonal (1:1000 dilution), AKT rabbit polyclonal (1:1000 dilution), TAK1 rabbit polyclonal (1:1000 dilution), PARP rabbit polyclonal (1:1000 dilution), Beclin-1 rabbit polyclonal (1:1000 dilution), caspase-3 rabbit polyclonal (1:1000) which detects the pro-caspase form, and ATG5 rabbit polyclonal (1:1000 dilution), LC3-II rabbit polyclonal (1:1000 dilution) antibodies were obtained from Cell Signaling Technology (Danvers, Mass.). The HSP27 mouse monoclonal (1:1000 dilution) antibody was obtained from Stressgen (Ann Arbor, Mich.). Blots were developed using chemiluminescence substrates (Amersham Piscataway, N.J. or BioRad, Hercules, Calif.). Monoclonal PAI-1 antibody was obtained from BD Pharmingen. PSMAD2, total SMAD2/3, p-ERK, p-AKT, and total AKT antibodies were obtained from Cell Signaling Technology. A monoclonal antibody against Arkadia was obtained from Abnova (Taiwan).\n(§2) Densitometric analysis was performed using the HP Scanjet 5590 and the Image J program (Image Processing and Analysis in Java, NIH Image Software). Bands were selected and the intensity values were normalized to those for GAPDH. The values are presented as fold-changes relative to control siRNA treated cells.\n(§3) The clinical inhibitors As2O3, geldanamycin (17-AAG) (dissolved in dimethylsulfoxide [DMSO]), and MG132 (dissolved in DMSO) were obtained from Sigma-Aldrich (St. Louis, Mo.), Fisher Scientific (Pittsburgh, Pa.), and Alexis Biochemicals (Farmingdale, N.Y.), respectively. N-acetyl-L-cysteine (NAC; dissolved in media) and Bortezomib (PS-341; dissolved in DMSO) were obtained from Fisher Scientific. 3-Methyladenine (3-MA; dissolved in media) was obtained from MP Biomedicals (Solon, Ohio). Tiron (4,5-Dihydroxy-1,3-benzenedisulfonic acid, dissolved in media) was obtained from Fisher Scientific. zVAD-fmk (dissolved in DMSO) and bafilomycin A (dissolved in DMSO) was obtained from Axxora LLC (San Diego, Calif.). Bovine catalase was obtained from Sigma-Aldrich. HBED and Mn TBAP was obtained from ENZO Life Sciences (Farmingdale, N.Y.). Ovarian cells were plated in 6-well plates at 250,000 cells per well and grown in complete medium. The following day, the cells were treated with 5 μM MG132, As2O3 (between 2-50 μM), 17-AAG (between 2-50 μM), NAC (Fisher Scientific, between 25 μM to 1 mM), Tiron (between 25 μM to 1 mM), 3-MA (0.1 mM to 10 mM), or zVAD-fmk (25 μM to 100 μM). For control cells, DMSO (a final concentration of <0.5%) was added to compare appropriately to drugs dissolved in DMSO. After the appropriate incubation time (6 or 18 hours), cell lysates were collected, protein quantified, and SDS-PAGE/western analysis was performed. In addition, for selected studies, RNA was isolated, quantified, and used for qPCR analysis."}, "[1]": {"test_system": "EVI1 forms (MDS1/EVI1, EVI1, EVI1^Del190-515)", "procedure": "as §1, §2, §3"}, "[2]": {"test_system": "immortalized and cancer ovarian cell lines", "test": "Boyden chamber migration assay", "settings": "5 μM As2O3 6 hours, then 18 hours in Boyden chamber", "procedure": "FIGS. 25(A) through (C) are graphs showing arsenic trioxide induces cell death and inhibits migratory potential. HEY cells were treated for 6 hours with 5 μM As2O3 and seeded at 25,000 cells into Boyden chamber inserts for 18 hours. Cells were stained with crystal violet and counted.\nTAg/hTert immortalized normal ovarian epithelial cells (TIOSE: T29 and T80) and ovarian cancer cells (OVCAR8, OVCA429, SKOV3, and HEY) were transfected with siRNA were counted 24 h post-transfection and 5000 cells were plated in each well of a 96-well plate maintained in 10% FBS. At various days, cells were fixed and stained with crystal violet solution, dissolved in Sorenson's buffer, and absorbance measured at 570 nm. To assess migration, cells transfected with siRNA were counted 24 h post-transfection and seeded into Boyden chamber inserts in serum-free media. FBS in the lower chamber media (RPMI 1640) was used as a chemoattractant for 24 h. The cells that migrated onto the lower membrane were stained with crystal violet, photographed, and counted."}, "[3]": {"test_system": "LC3-I/LC3-II, autophagosomes", "test": "Autophagy: LC3 western, EGFP-LC3 fluorescence, TEM of autophagosomes", "procedure": "as §1\nHEY cells were seeded onto glass coverslips and allowed to adhere following overnight incubation. The cells were then transiently transfected with EGFP-LC3 (Addgene, Cambridge, Mass.) and allowed to recover for 24 hours. The cells were treated at the appropriate concentrations of As2O3 in the absence or presence of 3-MA (5 and 10 mM), for 18 hours. The cells were then fixed in 4% paraformaldehyde in PBS for 30 minutes at room temperature, washed twice in PBS, and blocked for 1 hour at room temperature in PBS containing 5% goat serum and 0.1% Triton X-100. The cells were counterstained with Hoescht nuclear stain, washed 3 times for 5 minutes in PBS, anti-Fade containing DAPI nuclear stain was then applied, and coverslips mounted onto glass slides and viewed under a Zeiss inverted fluorescence microscope (Moffitt Cancer Center Microscopy Core).\nAutophagy induction was analyzed using electron microscopy. […] Cells were then fixed in 2.5% glutaraldehyde in 0.1M phosphate buffer overnight at 4° C. Following rinsing in buffer, cells were scraped from the culture flasks, washed, and then post-fixed in 1% osmium tetroxide in buffer. After dehydration in a graded series of acetone, the cells were embedded in Embed 812 epoxy resin. Thin sections (70 nm) were cut on an Ultramicrotome. The sections on the grids were stained with uranyl acetate and lead citrate. The sections were examined on a Transmission Electron Microscope (Morgagni 268D)."}}}
{"substance": "Arsenic trioxide [As2O3]", "values": [{"measurement": "dose at which PARP fragmentation dramatically increased", "setting": "cleaved PARP; HEY and SKOV3", "result": 50, "unit": "µM"}, {"measurement": "dose at which PARP fragmentation dramatically increased", "setting": "cleaved PARP; T80", "result": 25, "unit": "µM"}, {"measurement": "EVI1 and EVI1^Del190-515 protein expression", "setting": "[1]; 5 μM As2O3", "result": "reduced"}, {"measurement": "MDS1/EVI1 protein expression", "setting": "[1]; 5 μM As2O3", "result": "remained unchanged"}, {"measurement": "protein levels of EVI1 forms", "setting": "[1]; HEY and OVCA429, 18 hours, increasing doses", "result": "markedly decreased"}, {"measurement": "reduction of migratory potential", "setting": "[2]", "result": "more than fifty percent"}, {"measurement": "levels of LC3-I and LC3-II", "setting": "[3]; As2O3, 18 hours, correlated with SnoN expression", "result": "increased"}, {"measurement": "EGFP-LC3 staining pattern", "setting": "[3]; HEY, As2O3 between 5 μM to 25 μM, data not shown", "result": "punctuate staining pattern around the nucleus"}, {"measurement": "autophagosomes by TEM", "setting": "[3]; HEY, data not shown", "result": "numerous double membrane autophagosomes"}]}
